PubChem BioAssay (NCI)
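Five concentrations, 48 hours, 96-well plates. At the TGI there is no net growth.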

Experiments:
Experiment in all cases: NCI-60 cell line screen, 48 h
DU-145 prostate = tested on: DU-145 prostate
HT29 colon = tested on: HT29 colon
SF-539 CNS = tested on: SF-539 CNS
HCT-15 colon = tested on: HCT-15 colon
OVCAR-8 ovarian = tested on: OVCAR-8 ovarian
NCI/ADR-RES ovarian = tested on: NCI/ADR-RES ovarian
ACHN renal = tested on: ACHN renal
SK-MEL-28 melanoma = tested on: SK-MEL-28 melanoma
MCF7 breast = tested on: MCF7 breast
COLO 205 colon = tested on: COLO 205 colon
786-0 renal = tested on: 786-0 renal
SK-MEL-2 melanoma = tested on: SK-MEL-2 melanoma
MDA-MB-435 = tested on: MDA-MB-435
SN12C renal = tested on: SN12C renal
T-47D breast = tested on: T-47D breast
NCI-H23 lung = tested on: NCI-H23 lung
CCRF-CEM leukemia = tested on: CCRF-CEM leukemia

Structure (SMILES) | TGI (DU-145 prostate) [µM] | TGI (HT29 colon) [µM] | TGI (SF-539 CNS) [µM] | TGI (HCT-15 colon) [µM] | TGI (OVCAR-8 ovarian) [µM] | TGI (NCI/ADR-RES ovarian) [µM] | TGI (ACHN renal) [µM] | TGI (SK-MEL-28 melanoma) [µM] | TGI (MCF7 breast) [µM] | TGI (COLO 205 colon) [µM] | TGI (786-0 renal) [µM] | TGI (SK-MEL-2 melanoma) [µM] | TGI (MDA-MB-435) [µM] | TGI (SN12C renal) [µM] | TGI (T-47D breast) [µM] | TGI (NCI-H23 lung) [µM] | TGI (CCRF-CEM leukemia) [µM]
N=c1oc2ccc(Cl)cc2cc1C(=O)NC1CCCCC1 | > 100 | > 100 | > 100 | > 100 | > 100 | > 100 | > 100 | > 100 | > 100 | > 100 | > 100 | > 100 | > 100 | > 100 | > 100 | > 100 | > 100
CCOC(=O)/C=C1\C[C@H](NC(=O)OCc2ccccc2)C(=O)N1CC(=O)OCC | > 100 | > 100 | > 100 | > 100 | > 100 | > 100 | > 100 | > 100 | > 100 | > 100 | > 100 | > 100 | > 100 | > 100 | > 100 | > 100 | > 100
COc1cc(C2SC(N)=Nc3c2c(C)nn3C(=O)c2ccc(Cl)cc2)ccc1O (configuration not stated) | > 10 | > 10 | > 10 | > 10 | > 10 | > 10 | > 10 | > 10 | > 10 | > 10 | > 10 | > 10 | > 10 | > 10 | > 10 | > 10 | > 10
S=c1sscc1N1CCSc2ssc(=S)c21 | 81.6 | > 100 | > 100 | > 100 | 18.9 | > 100 | > 100 | > 100 | > 100 | > 100 | > 100 | > 100 | > 100 | > 100 | > 100 | 69.8 | > 100
COc1ccccc1NC1=NCC(C)S1 (configuration not stated) | > 100 | > 100 | > 100 | > 100 | > 100 | > 100 | > 100 | > 100 | > 100 | > 100 | > 100 | > 100 | > 100 | > 100 | > 100 | > 100 | > 100
O=c1cc(-c2cccc(Br)c2)[nH]c2cc3c(cc12)OCO3 | 18.1 | > 83.3 | 6.58 | > 77.6 | 17.3 | 30.7 | 24.4 | > 100 | > 100 | > 100 | 12.9 | 6.67 | 3.02 | > 55.9 | 36.5 | 12.8 | > 100
CC(=O)NC1=CC(=O)C=C(Cl)C1=O | > 100 | > 100 | > 100 | > 100 | > 100 | > 100 | > 100 | > 100 | 82.4 | > 100 | > 100 | > 100 | 32.2 | > 100 | > 100 | > 100 | 57.8
Cc1cc(C)nc(NS(=O)(=O)c2ccc(NC(=O)c3ccc4nc5ccccc5c(Nc5ccc(S(=O)(=O)Nc6nc(C)cc(C)n6)cc5)c4c3)cc2)n1 | > 100 | > 100 | > 100 | > 100 | > 100 | > 100 | > 100 | > 100 | 84.5 | > 100 | > 100 | > 100 | > 100 | > 100 | > 100 | > 100 | > 100
COC(=O)/C=C/N1CC1 | > 10 | > 10 | > 10 | > 10 | > 10 | > 10 | > 10 | > 10 | > 10 | 9.07 | > 10 | > 10 | > 10 | > 10 | > 10 | > 10 | > 10
NC(=O)N=Nc1c2ccccc2n2[nH]ccc12 | > 100 | > 100 | > 100 | > 100 | > 100 | > 100 | > 100 | > 100 | 66.7 | > 100 | > 100 | > 100 | > 100 | > 100 | 92.9 | > 100 | > 100
Cc1ccc2c(c1)C/C(=C\c1ccccc1C(=O)O)C2=O | > 100 | > 100 | > 100 | > 100 | > 100 | > 100 | > 100 | > 100 | > 100 | > 100 | > 100 | > 100 | > 100 | > 100 | > 100 | > 100 | > 100
COc1ccc(/C=C2\CC3C4CC=C5C[C@@H](O)CC[C@]5(C)C4CC[C@]3(C)C2=O)cc1OC (some centres not stated) | > 100 | > 100 | > 100 | > 100 | > 100 | > 100 | > 100 | > 100 | > 100 | 47 | > 100 | > 100 | > 100 | > 100 | > 100 | > 100 | > 100
CC(=O)Nc1ccc2c3c(cc(O)c2c1)N(C(=O)CCCCCC(=O)Nc1ccc2c4c(cc(O)c2c1)N(C(=O)OC(C)(C)C)CC4CCl)CC3CCl (configuration not stated) | 3.12 | > 39.8 | 13.1 | > 100 | 15.2 | > 100 | > 100 | > 63.2 | > 35.5 | 9.88 | 10.1 | 4.02 | 3.29 | > 38.3 | 7.82 | 3.59 | 0.648
O=c1c2cc([N+](=O)[O-])cnc2sn1-c1ccc(Br)cc1 | > 100 | 79.2 | > 100 | > 100 | > 100 | > 100 | > 100 | > 100 | > 100 | > 100 | > 100 | 85.5 | > 100 | > 100 | 48.1 | > 100 | 66.6
Fc1ccc(C(OCCN2CCC3CCC(C2)N3C/C=C/c2cccnc2)c2ccc(F)cc2)cc1 (configuration not stated) | 33.1 | 14.6 | 25.2 | 21.6 | 25.9 | 25.7 | 27.3 | 5.38 | 25.5 | 2.68 | 17.8 | 26.5 | 24.3 | 26.2 | 31 | 26.5 | 17.5
CC1(C)N=C(N)N=C(N)N1CCCCc1ccccc1 | > 100 | > 100 | 32.4 | > 100 | > 100 | > 100 | > 100 | > 100 | > 100 | > 51.6 | > 100 | > 100 | > 100 | > 54.4 | > 78.1 | > 100 | > 100
Cc1ccc(S(=O)(=O)N/N=C2\CC3C4CCC3C2C4)cc1 (configuration not stated) | > 100 | > 100 | > 100 | > 100 | > 100 | > 100 | > 100 | > 100 | > 100 | > 100 | > 100 | > 100 | > 100 | > 100 | > 100 | > 100 | > 100
CCOC(=O)c1c[nH]c2cc3c(cc2c1=O)CCS3 | > 100 | > 100 | > 100 | > 100 | > 100 | > 100 | > 100 | > 100 | > 100 | > 100 | > 100 | > 100 | > 100 | > 100 | > 100 | > 100 | > 100
C/C(CC(O)(C(F)(F)F)C(F)(F)F)=N/Nc1ccc([N+](=O)[O-])cc1[N+](=O)[O-] | > 10 | > 10 | > 10 | > 10 | > 10 | > 10 | > 10 | > 10 | > 10 | 3.85 | > 10 | 6.11 | > 10 | > 10 | 8.37 | 7.27 | > 10
CCOC(=O)c1c(CN2CCOCC2)n(Cc2ccccc2)c2c1cc(O)c1nc(C)c(C)nc12 | > 100 | > 100 | 87 | > 100 | 53.4 | > 100 | > 100 | > 100 | 34.5 | > 100 | 68.7 | 44.5 | > 100 | > 100 | > 100 | > 100 | > 100
CC(C)[C@H]1NC(=O)[C@H]2N=C(O[C@@H]2C)[C@@H]2CCCN2C(=O)[C@H](Cc2ccccc2)NC(=O)[C@@H]2COC(=N2)[C@@H](Cc2ccccc2)NC(=O)[C@@H]2COC1=N2 | > 100 | > 100 | > 100 | > 100 | > 100 | > 100 | > 100 | > 100 | > 100 | > 100 | > 100 | > 100 | > 100 | > 100 | > 100 | > 100 | > 100
